The source of these data is patent US12478610B2, “Compositions of tryptophol derivatives and 4-ethyl-phenol derivatives, and methods of using same” (B. G. Negev Technologies and Applications Ltd., at …, priority 2020, dated 2025).

SMILES strings stand for the structures.

Assay [1] has as its system human normal whole blood. In words: Thromboelastography (TEG) of human normal whole blood clotting. The note with it: 200 μM (mixture: 200 μM each); healthy blood; TBS control. The class given is cell-based.
Assay [2] deals with human normal whole blood. Described as above. The format is cell-based. The method, then:
Clotting of whole blood (from healthy volunteers, and diabetics patients) was monitored by thromboelastography (TEG) on a TEGs 5000 Hemostasis Analyzer (Haemoscope Inc., Niles, IL) equipped with two independent channels. Thermoelastograms were recorded at 37° C. and analyzed using the TEGs Analytical Software) version 4.2.3 provided with the instrument). Reported clotting parameters are the time until the onset in the measured strength considered as clot reaction time, R; the time until achieving 20% of the maximum clot strength (clotting time), k; the rate of clot strength increase measuring the kinetics of clot formation, the α angle; and finally, the maximum clot strength, MA.
Aqueous solutions of molecules mixture in a ratio of 1:1 in deionized water were prepared in the concentration range of 400-1,800 μM. TEG cups were first filled with […] of 250 mM CaCl2, supplemented with […] of human blood sample, followed by the addition of the appropriate volume of the molecule's mixture dissolved in water to obtain the above rang of concentration or TBS as control before initiating the test. The test completed when clotting parameters obtained final values or within 45 min. Each sample was run in duplicates, n≥5 individual blood samples. TEG values of control fell within the acceptable range reported for human whole blood barring an expected decrease in clot strength (MA), as tested blood was deficient in platelets (Scarpelini et al. Biol. Res., 2009).
The inventors have studied the effect of tryptophol acetate and tyrosol acetate on human normal whole blood coagulation. The blood clotting was monitored by thromboelastography (TEG). TEG is one of the most common whole-blood viscoelastic coagulation tests used in clinical laboratories and at the point of care. TEG provides a direct information of the blood clotting kinetic and strength, with no ‘added reagents. Clotting of human normal whole blood was monitored by TEG on a TEG 5000 Hemostasis Analyzer (Haemoscope Inc., Niles, IL) equipped with two independent channels. Thermoelastograms were recorded at 37° C. and analyzed using the TEG Analytical Software (version 4.2.3 provided using the instrument). Reported clotting parameters are the time till onset in the measured strength considered as the clot reaction time, R; the time till achieving 20% of the maximum clot strength (clotting time), k; the rate of the clot strength increase measuring the kinetics of clot formation, the α angle; and lastly, the maximum clot strength, MA (see table 1). […]

Where [3] appears, read: 400 μM (mixture: 400 μM each), healthy blood, TBS control.

In the case of `NCCc1c[nH]c2ccc(O)cc12` [Serotonin, serotonin], in the assay on human normal whole blood [1], the “K” value came to 2.4 ± 0.2 min, the “MA (mm)” value stood at 60 ± 0.4 mm, the “R” value turned out to be 6.8 ± 0.9 min and the “α (degree)” value was found to be 58.2 ± 0.3 degree. Moreover, in the assay with human normal whole blood [2] (setting [3]), the “K” value stood at 1.5 ± 0.2 min, the “MA (mm)” value was determined as 61.3 ± 1.7 mm, the “R (min)” value is given as 5.2 + 0.4 min and the “α (degree)” value is 62.4 ± 0.9 degree. The “effect on the TEG parameters as seen with the mixture at 200 μM each” value in the assay on human normal whole blood [2] (single substance at a similar concentration, whole blood) is on record as “did not show a similar effect”.
Consider `CC(=O)OCCc1ccc(O)cc1` [compound 180, Tyrosol acetate], for which, in the assay with human normal whole blood [1], the “K” value stood at 1.8 min, the “MA (mm)” value came to 59.0 mm, the “R” value is reported as 6.4 min and the “α (degree)” value stood at 59.6 degree.
Regarding `CC(=O)OCCc1c[nH]c2ccccc12` [compound 203, Tryptophol acetate], in the assay on human normal whole blood [1], the “K” value was 2.3 ± 0.1 min, the “MA (mm)” value turned out to be 60.5 ± 1.5 mm, the “R” value was found to be 6.2 ± 0.2 min and the “α (degree)” value worked out at 56.8 ± 2.7 degree.
